# Measurements: patent US20240099951A1, “HAIR GROWTH STIMULANT” (ADJUVANT HOLDINGS CO., LTD., priority 2020, published 2024)
# Key:
# [1] = tested on: hair groups derived from C57BL/6N dorsal body hair skin transplanted in Balb/c nu/nu mice; assay: Evaluation of hair-diameter-increasing activity (hair shafts grown after third cycle of Exemplary Test 1); type: in vivo
# Method: Dorsal body hair skin was collected from C57BL/6N mice (SLC) of age 7 to 8 weeks in accordance with a procedure similar to that at Exemplary Test 1, above, the drug being applied after the hair groups derived from the dorsal body hair skin that had been fabricated were transplanted in Balb/c nu/nu mice (SLC) of age 4 to 6 weeks. Testing and breeding of animals complied with pertinent laws, regulations, ordinances, and guidelines, and was performed with the approval of the Experimental Ethics Review Board of the Institute of Physical and Chemical Research. The following three solutions were used during testing. • 60% aqueous ethanol solution • 5% minoxidil solution • 1% phytosphingosine solution Measurement of increase in hair diameter was carried out using hair shafts which had grown following completion of the third cycle at Exemplary Test 1. Of the hair shafts that were collected, two zigzag hairs were used. Three locations were selected in regions where diameter was large in the central portions thereof using a square 100 μm on a side. Measurement of selected regions was carried out at five locations. Hairs as they existed following application of the drug were used for measurement of hair shaft diameter.
# [2] = tested on: skin samples derived from C57BL/6N mouse dorsal body hair skin grafted onto Balb/c nu/nu mice; assay: Evaluation of hair growth activity: drug applied on skin samples transplanted in mice; type: in vivo
# Method: C57BL/6N mice (male) and Balb/c nu/nu mice (female) were purchased from Japan SLC, Inc. (Japan) and bred, and were thereafter made available for the following testing. Note that the testing and breeding of animals complied with pertinent laws, regulations, ordinances, and guidelines, and was performed with the approval of the Experimental Ethics Review Board of the Institute of Physical and Chemical Research. The following reagents were respectively prepared. • Comparative Example 1: 60% aqueous ethanol solution • Comparative Example 2: 5% minoxidil solution • Comparative Example 3: 3% minoxidil solution • Comparative Example 4: 1% minoxidil solution • Working Example 1: 3% phytosphingosine solution • Working Example 2: 1% phytosphingosine solution To collect dorsal body hair skin in the form of anagen stage VI skin 12 to 14 days following depilation, C57BL/6N mice of age 7 to 8 weeks were depilated at locations where dorsal body hair skin was intended to be collected, and were bred for 12 to 14 days. The depilated C57BL/6N mice were thereafter euthanized by cervical dislocation, following which a suitable amount of dorsal body hair skin was collected from the locations at which dorsal body hair skin was intended to be collected. The collected skin was immersed in DMEM culture medium (hereinafter “DMEM 10”) which contained 10 mM HEPES, 10% fetal bovine serum, and 1% penicillin/streptomycin solution. The collected dorsal body hair skin was grasped with bent-nose curved tweezers and was treated by immersion for 10 seconds in a sterilizing solution. Sterilization treatment was performed by carrying out treatment with 7% povidone iodine solution two times, treatment with PBS (−) three times, and treatment with DMEM 10 two times, in this order, with fresh solutions respectively being used each time. Following sterilization treatment, these were immersed in clean DMEM 10. Following sterilization treatment, the dorsal body hair skin was cut into pieces and formed into blocks. The transparent connective tissue which adhered to the cutaneous muscle layer of the skin was excised therefrom using curved scissors, and hair groups were cut into rectangular strips in parallel fashion with respect to the direction of the wave of the hair. At this time, these were cut into blocks such that there were 6 rows of hair follicles along the long axis, adjustment having been carried out so that there were 5 rows of hair follicles along the short axis. The skin samples derived from dorsal body hair skin that were prepared in accordance with the foregoing were grafted onto Balb/c nu/nu mice of age 4 to 6 weeks. More specifically, mice were anesthetized in the usual way using isoflurane gas. The dorsal area of the mice was then disinfected using 7% povidone iodine solution, following which the mice were made to assume a naturally recumbent posture. In addition, a Mani ophthalmic knife (Mani, Inc.; Japan) was used to pierce the skin at the dorsal area of the mice, the grafts which were formed extending from the epidermal layer of the skin to the subdermal layer. The skin samples derived from dorsal body hair skin were inserted into the grafts formed thereat in such fashion as to cause the hair groups to be directed toward the body surface side of the grafts. Skin sample transplanted depth was adjusted so as to cause the top portion of the hair group to be in a state such that it was exposed at the top portion of the graft. To protect the grafts, Nurseban (registered trademark) (Sunplanet Co., Ltd.; Japan) and surgical tape (3M Japan Limited; Japan) were then used as protective tape to cover the grafts at which the skin samples derived from dorsal body hair skin had been transplanted. The protective tape was removed 5 to 7 days following transplantation, and survival of the transplanted skin samples derived from dorsal body hair skin was determined by visual inspection or digital microscopy (Keyence Corporation; Japan), after which follow-up observation was carried out. […]
# [3] = 1% minoxidil solution (Comparative Example 4), second hair cycle
# [4] = 1% minoxidil solution (Comparative Example 4), third hair cycle
# [5] = 1% minoxidil solution, second hair cycle vs first hair cycle
# [6] = 1% minoxidil solution, third hair cycle vs first hair cycle
# [7] = 3% minoxidil solution (Comparative Example 3), second hair cycle
# [8] = 3% minoxidil solution (Comparative Example 3), third hair cycle
# [9] = 3% minoxidil solution, second hair cycle vs first hair cycle
# [10] = 3% minoxidil solution, third hair cycle vs first hair cycle
# [11] = 5% minoxidil solution (Comparative Example 2), second hair cycle
# [12] = 5% minoxidil solution (Comparative Example 2), third hair cycle
# [13] = 5% minoxidil solution, second hair cycle vs first hair cycle
# [14] = 5% minoxidil solution, third hair cycle vs first hair cycle
structure (smiles),measurement,setting,value
Nc1cc(N2CCCCC2)nc(N)[n+]1[O-] [minoxidil],Hair shaft diameter,"[1]; 5% minoxidil solution applied, hair shafts after third cycle",18.28 μm
same,hair shaft diameter as percent of control,[1]; 5% minoxidil solution vs 60% aqueous ethanol solution,115%
same,Hair shaft elongation rate,[2]; [3],0.54 ± 0.08 mm/day
same,Maximum hair shaft length,[2]; [3],5.2 ± 0.3 mm
same,Hair shaft elongation rate,[2]; [4],0.44 ± 0.02 mm/day
same,Maximum hair shaft length,[2]; [4],4.9 ± 0.4 mm
same,"Hair shaft elongation rate, percent change relative to reference data",[2]; [5],123.85%
same,"Maximum hair shaft length, percent change relative to reference data",[2]; [5],118.07%
same,"Hair shaft elongation rate, percent change relative to reference data",[2]; [6],100.24%
same,"Maximum hair shaft length, percent change relative to reference data",[2]; [6],111.10%
same,Hair shaft elongation rate,[2]; [7],0.48 ± 0.07 mm/day
same,Maximum hair shaft length,[2]; [7],5.2 ± 0.2 mm
same,Hair shaft elongation rate,[2]; [8],0.53 ± 0.03 mm/day
same,Maximum hair shaft length,[2]; [8],5.3 ± 0.3 mm
same,"Hair shaft elongation rate, percent change relative to reference data",[2]; [9],126.50%
same,"Maximum hair shaft length, percent change relative to reference data",[2]; [9],116.80%
same,"Hair shaft elongation rate, percent change relative to reference data",[2]; [10],139.36%
same,"Maximum hair shaft length, percent change relative to reference data",[2]; [10],120.09%
same,Hair shaft elongation rate,[2]; [11],0.51 ± 0.03 mm/day
same,Maximum hair shaft length,[2]; [11],6.0 ± 0.1 mm
same,Hair shaft elongation rate,[2]; [12],0.55 ± 0.07 mm/day
same,Maximum hair shaft length,[2]; [12],5.8 ± 0.1 mm
same,"Hair shaft elongation rate, percent change relative to reference data",[2]; [13],116.25%
same,"Maximum hair shaft length, percent change relative to reference data",[2]; [13],115.74%
same,"Hair shaft elongation rate, percent change relative to reference data",[2]; [14],126.11%
same,"Maximum hair shaft length, percent change relative to reference data",[2]; [14],112.62%
